Assay results from patent publication US20260364214A1, “MULTIVALENT FIBROBLAST ACTIVATION PROTEIN LIGANDS FOR TARGETED DELIVERY APPLICATIONS” (Philochem AG, priority 2022, published 2026).

System: SK-RC-52.hFAP tumors
Assay: Therapeutic efficacy, schedule optimization for combination with L19-IL2
Format: in vivo, mouse (athymic Balb/c AnNRj-Foxn1)
Conditions: 5 MBq/mouse on day 7
Protocol: The anti-cancer efficacy was assessed in athymic Balb/c AnNRj-Foxn1 mice bearing SK-RC-52.hFAP tumor in the right flank. Therapy experiments started when the average volume of established tumors had reached 100-150 mm^3. Body weight of the animals and tumor volume were daily measured and recorded. Tumor dimensions were measured with an electronic caliper and tumor volume was calculated with the formula (long side, mm)×(short side, mm)×(short side, mm)×0.5. Animals were euthanized when one or more termination criterium indicated by the experimental license was reached. Prism 7 software (GraphPad Software) was used for data analysis. Different groups were treated with (i) L19-IL2 as single agent at a dose of 0.05 mg/mouse on day 8,10 and 12, (ii) ^177Lu-Tri-ESV6 as single agent at a dose of 5 MBq/mouse on day 7 (iii) ^177Lu-Tri-ESV6+L19-IL2 combination (^177Lu-Tri-ESV6 at a dose of 5 MBq/mouse on day 7 followed by three administrations of L19-IL2 at a dose 0.05 mg/mouse on day 8, 10 and 12—SCHEDULE 1—, or by three administrations of L19-IL2 at a dose 0.05 mg/mouse on day 12, 17 and 22—SCHEDULE 2—, or by a single administration of L19-IL2 at a dose 0.05 mg/mouse on day 8—SCHEDULE 3—, or by a single administration of L19-IL2 at a dose 0.05 mg/mouse on day 12—SCHEDULE 4—or (iv) saline […].

## N#CC1CC(F)(F)CN1C(=O)CNC(=O)c1ccnc2c(NC(=O)CCC(=O)NCCNC(=O)CCOCC(COCCC(=O)NCCNC(=O)CCC(=O)Nc3cccc4c(C(=O)NCC(=O)N5CC(F)(F)CC5C#N)ccnc34)(COCCC(=O)NCCNC(=O)CCC(=O)Nc3cccc4c(C(=O)NCC(=O)N5CC(F)(F)CC5C#N)ccnc34)NC(=O)CCC(C(=O)O)N3CCN(CC(=O)[O-])CCN(CC(=O)[O-])CCN(CC(=O)[O-])CC3)cccc12.[177Lu+3] (stereo not shown) [^177Lu-Tri-ESV6-DOTAGA]
  therapeutic activity, in words: dose-dependent therapeutic activity
